Where “and” joins values, the source holds several entries; their conditions need not be identical. Equal values may be shown once. Entries after “also recorded” stand apart in the source; their conditions may differ. Read-outs that look alike come from different tables or passages of the source.
What was measured:
human DAT = target: T1, human DAT (Homo sapiens, UniProt Q01959); assay: Competitive binding in transfected cell lines, [3H]WIN 35428
T1 construct: expressed in transfected cells

[1] = In vivo regional brain tissue distribution of 18F-labeled ligands in rats; parameters: species or system Sprague Dawley rats; conditions: rat; for Regional uptake of radioactivity, Cerebellum / Regional uptake of radioactivity, Cortex (Cx) / Regional uptake of radioactivity, Striatum / Uptake of radioactivity, Blood / Uptake of radioactivity, Bone / Uptake of radioactivity, Brain: i.v., 18F-labeled
Excerpt: The in vivo regional brain tissue distribution of [^18F]

rat brain DAT [2] = target: T2, rat brain DAT (Rattus norvegicus, UniProt P23977); assay: In vivo specificity: RTI-113 block before the 18F ligand in rats; conditions: for effect of RTI-113 on uptake in the striatum: RTI-113 5 mg/kg i.v. 15 minutes prior, 60 minutes
T2 construct: from tissue; host or cells: brain of living male Sprague Dawley rats (striatum, cortex, cerebellum dissected)
Experimental: To determine the in vivo specificity of FBNT analogs [^18F] […] 6a, 6d and 6e. The rats were sacrificed 60 minutes after injection of [^18F] […] 6a, 6d and 6e, in the DAT transporter rich striatum.

striatal DAT [3] = assay: PET imaging in awake rhesus monkeys; assay type: in vivo, rhesus monkey
Experimental: The regional kinetics of [^18F] […] Both [^18F] […] [^18F] […] The peak uptake ratio of striatumwcerebellum was 4:1 at 20 minutes for [^18F] […] 6d. The in vivo ratio of [1^18F] […] FECNT, 5:1. [^18F]

rat brain DAT [4] = target: T2, rat brain DAT; assay: In vivo selectivity: block with monoamine transporter ligands before [18F]FBCINT in rats; conditions: 60 minutes
Experimental: FBCINT. The rats were sacrificed 60 minutes after injection of [^18F] FBCINT and the striatum, cortex, prefrontal cortex, olfactory tubercles and cerebellum were dissected and the uptake of radioactivity determined. The monoamine transporter ligands administered were RTI-113 (DAT), paroxetine (SERT) and reboxetine (NET). […] FBCINT in the DAT transporter rich striatum and olfactory tubercles. […] FBCINT.

[5] = PET brain imaging in a rhesus monkey; assay type: in vivo
Experimental: The regional distribution of E-[^18F] […] Dynamic emission data were acquired using a 35 frame acquisition protocol which included twelve 30 second scans, six one minute scans, six 3 minute scans, five 10 minute scans and six 20 minute scans.

striatal DAT [6] = assay: Chase (displacement) study with β-CIT, PET in rhesus monkey; assay type: in vivo; conditions: for displacement from striatum by β-CIT: PET
Experimental: A chase study with E-[^18F] FBCINT and β-CIT, a DAT ligand, was also performed in the same rhesus monkey. At 195 minutes p.i. 3.0 mg (0.9 μmol/kg) of β-CIT, was administered intravenously and dynamic imaging was continued for an additional 40 minutes (eight 5 minute scans). […] The displacement of E-[^18F] […] The regional distribution and kinetic behavior of E-[^18F] […] FBFNT (6e) were next compared in the brain of awake rhesus monkeys.

[7] = Stability to metabolism and in vivo loss of fluorine-18
[8] = target: T3, norepinephrine transporter (Homo sapiens, UniProt P23975); assay: Competitive binding in transfected cell lines, [3H]Nisoxetine
T3 construct: expressed in transfected cells

human SERT = target: T4, human SERT (Homo sapiens, UniProt P31645); assay: Competitive binding in transfected cell lines, [3H]Citalopram
T4 construct: expressed in transfected cells

[9] = at 120 minutes compared to 5 minutes post injection
[10] = 60 min, 5 mg/kg RTI-113 i.v. 15 minutes prior

T2 sequence (P23977 whole entry): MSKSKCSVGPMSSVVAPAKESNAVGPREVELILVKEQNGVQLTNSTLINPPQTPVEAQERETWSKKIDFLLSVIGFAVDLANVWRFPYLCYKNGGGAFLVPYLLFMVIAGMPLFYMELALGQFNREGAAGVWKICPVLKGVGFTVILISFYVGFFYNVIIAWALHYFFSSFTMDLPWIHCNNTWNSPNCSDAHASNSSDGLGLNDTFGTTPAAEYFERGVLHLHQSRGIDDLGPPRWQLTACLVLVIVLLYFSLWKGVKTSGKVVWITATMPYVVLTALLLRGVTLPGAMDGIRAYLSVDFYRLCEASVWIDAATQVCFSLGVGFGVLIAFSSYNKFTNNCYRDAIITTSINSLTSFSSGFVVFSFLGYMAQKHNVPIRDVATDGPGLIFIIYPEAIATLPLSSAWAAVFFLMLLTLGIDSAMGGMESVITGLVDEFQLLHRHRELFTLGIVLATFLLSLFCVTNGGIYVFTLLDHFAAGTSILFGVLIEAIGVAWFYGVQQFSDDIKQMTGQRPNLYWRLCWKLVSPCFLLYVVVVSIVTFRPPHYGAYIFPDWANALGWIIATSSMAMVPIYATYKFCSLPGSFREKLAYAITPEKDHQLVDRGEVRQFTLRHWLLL
T3 sequence (P23975 whole entry): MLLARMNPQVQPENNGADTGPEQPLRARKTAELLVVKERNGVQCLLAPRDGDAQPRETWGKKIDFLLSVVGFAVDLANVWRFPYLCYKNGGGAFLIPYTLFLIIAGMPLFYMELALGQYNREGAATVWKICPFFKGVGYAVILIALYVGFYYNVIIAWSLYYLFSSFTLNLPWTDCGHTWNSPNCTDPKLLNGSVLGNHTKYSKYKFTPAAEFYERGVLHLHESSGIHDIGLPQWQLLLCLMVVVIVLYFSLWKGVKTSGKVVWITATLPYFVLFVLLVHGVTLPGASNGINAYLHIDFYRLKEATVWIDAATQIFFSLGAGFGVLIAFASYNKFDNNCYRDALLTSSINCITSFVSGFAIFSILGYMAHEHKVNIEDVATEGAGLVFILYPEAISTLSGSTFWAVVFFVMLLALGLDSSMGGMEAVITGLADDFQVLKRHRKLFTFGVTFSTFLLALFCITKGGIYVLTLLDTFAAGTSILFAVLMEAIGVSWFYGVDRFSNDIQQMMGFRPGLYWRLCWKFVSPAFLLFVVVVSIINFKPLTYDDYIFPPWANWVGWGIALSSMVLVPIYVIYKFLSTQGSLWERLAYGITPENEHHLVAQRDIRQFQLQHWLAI
T1 sequence (Q01959 whole entry): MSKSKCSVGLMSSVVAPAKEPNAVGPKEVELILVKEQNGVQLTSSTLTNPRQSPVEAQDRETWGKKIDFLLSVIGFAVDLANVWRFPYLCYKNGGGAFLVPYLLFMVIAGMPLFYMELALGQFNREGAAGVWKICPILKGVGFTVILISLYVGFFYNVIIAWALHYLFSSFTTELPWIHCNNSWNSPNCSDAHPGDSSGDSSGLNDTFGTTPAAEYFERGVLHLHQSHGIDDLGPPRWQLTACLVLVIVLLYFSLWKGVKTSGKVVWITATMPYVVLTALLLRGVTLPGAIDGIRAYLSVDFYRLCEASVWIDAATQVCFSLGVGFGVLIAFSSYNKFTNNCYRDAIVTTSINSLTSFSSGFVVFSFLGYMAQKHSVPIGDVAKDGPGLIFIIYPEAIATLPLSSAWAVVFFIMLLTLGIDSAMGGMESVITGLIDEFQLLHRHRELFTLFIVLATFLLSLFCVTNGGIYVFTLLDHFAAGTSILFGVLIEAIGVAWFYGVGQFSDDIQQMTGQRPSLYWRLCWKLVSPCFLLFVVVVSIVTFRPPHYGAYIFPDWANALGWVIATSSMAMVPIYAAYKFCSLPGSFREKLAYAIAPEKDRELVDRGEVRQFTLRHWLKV
T4 sequence (P31645 whole entry): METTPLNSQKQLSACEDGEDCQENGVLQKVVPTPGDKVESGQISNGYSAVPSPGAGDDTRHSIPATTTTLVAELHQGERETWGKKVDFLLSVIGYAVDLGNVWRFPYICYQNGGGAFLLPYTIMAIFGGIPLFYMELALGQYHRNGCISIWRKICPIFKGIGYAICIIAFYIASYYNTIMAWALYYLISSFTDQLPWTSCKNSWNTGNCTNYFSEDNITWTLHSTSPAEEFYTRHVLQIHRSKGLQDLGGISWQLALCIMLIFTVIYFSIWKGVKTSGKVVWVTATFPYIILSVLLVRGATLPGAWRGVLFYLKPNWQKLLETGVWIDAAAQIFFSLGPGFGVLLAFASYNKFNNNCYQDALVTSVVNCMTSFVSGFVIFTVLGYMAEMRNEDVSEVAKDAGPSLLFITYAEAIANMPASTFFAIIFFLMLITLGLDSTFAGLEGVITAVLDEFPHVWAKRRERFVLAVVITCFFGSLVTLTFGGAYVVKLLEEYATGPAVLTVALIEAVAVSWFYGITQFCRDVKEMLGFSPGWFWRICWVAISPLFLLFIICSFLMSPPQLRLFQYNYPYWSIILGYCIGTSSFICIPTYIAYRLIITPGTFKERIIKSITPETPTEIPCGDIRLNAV

## COC(=O)[C@H]1[C@@H](c2ccc(F)cc2)C[C@@H]2CC[C@H]1N2C/C=C/CF [6e, N-((E)-4-fluorobut-2-en-1-yl)-2β-carbomethoxy-3β-(4-fluorophenyl)nortropane]
Human DAT; [3H]WIN 35428 as reference, cells transfected with human DAT, read-out: DAT, Ki
  Ki: 1.7 nM
[1]; at 60 minutes compared to 5 minutes post injection
  clearance from striatal tissue: 70%
[1]; [9]
  clearance from striatal tissue: 85%
Rat brain DAT [2]
  effect of RTI-113 on uptake in the striatum: significantly blocked
Striatal DAT [3]; awake rhesus monkey, post injection
  time at which transient equilibrium in the striatum was reached: 30 min and 20 min
Striatal DAT [3]; awake rhesus monkeys, PET
  early transient equilibrium at the striatal DAT: achieved an early transient equilibrium

## COC(=O)C1C(c2ccc(Cl)cc2)CC2CCC1N2C/C=C/CF (stereo not drawn) [6d, N-((E)-4-fluorobut-2-en-1-yl)-2β-carbomethoxy-3β-(4-chlorophenyl)nortropane]
[1]; [9]
  clearance from striatal tissue: 50%
[1]; 5 min
  Regional uptake of radioactivity, Cerebellum: 0.52 % dose/g
  Regional uptake of radioactivity, Cortex (Cx): 0.76 % dose/g
  Regional uptake of radioactivity, Striatum: 1.33 % dose/g
  Uptake of radioactivity, Blood: 0.14 % dose/g
  Uptake of radioactivity, Bone: 0.30 % dose/g
  Uptake of radioactivity, Brain: 0.66 % dose/g
[1]; 30 min
  Regional uptake of radioactivity, Cerebellum: 0.19 % dose/g
  Regional uptake of radioactivity, Cortex (Cx): 0.40 % dose/g
  Regional uptake of radioactivity, Striatum: 1.31 % dose/g
  Uptake of radioactivity, Blood: 0.16 % dose/g
  Uptake of radioactivity, Bone: 0.80 % dose/g
  Uptake of radioactivity, Brain: 0.29 % dose/g
[1]; 60 min
  Regional uptake of radioactivity, Cerebellum: 0.10 % dose/g
  Regional uptake of radioactivity, Cortex (Cx): 0.13 % dose/g
  Regional uptake of radioactivity, Striatum: 0.61 % dose/g
  Uptake of radioactivity, Blood: 0.10 % dose/g
  Uptake of radioactivity, Bone: 1.35 % dose/g
  Uptake of radioactivity, Brain: 0.14 % dose/g
[1]; 120 min
  Regional uptake of radioactivity, Cerebellum: 0.13 % dose/g
  Regional uptake of radioactivity, Cortex (Cx): 0.24 % dose/g
  Regional uptake of radioactivity, Striatum: 0.69 % dose/g
  Uptake of radioactivity, Blood: 0.13 % dose/g
  Uptake of radioactivity, Bone: 1.9 % dose/g
  Uptake of radioactivity, Brain: 0.17 % dose/g
[1]; 120 min, listed as [F-18]FBCINT
  Regional uptake of radioactivity, Striatum: 2.5 % dose/g
Rat brain DAT [2]; [10]
  Regional uptake of radioactivity, Cerebellum: 0.12 % dose/g
  Regional uptake of radioactivity, Cortex (Cx): 0.14 % dose/g
  Regional uptake of radioactivity, Striatum: 0.15 % dose/g
  Uptake of radioactivity, Blood: 0.12 % dose/g
  Uptake of radioactivity, Brain: 0.12 % dose/g
Rat brain DAT [2]
  effect of RTI-113 on uptake in the striatum: significantly blocked
Rat brain DAT [4]; 5 mg/kg i.v. 15 minutes prior
  effect of GBR 12909 on uptake in striatum and olfactory tubercles: significantly blocked
  effect of SERT and NET blocking agents on regional brain uptake: no effect
Rat brain DAT [4]; GBR 12909 5 mg/kg i.v.
  Regional uptake, Cerebellum: 0.15 % dose/g
  Regional uptake, Cortex (CX) (dry tissue): 0.69 % dose/g
  Regional uptake, Olfactory Tubercle (dry tissue): 1.07 % dose/g
  Regional uptake, Prefrontal Cx (dry tissue): 1.02 % dose/g
  Regional uptake, Striatum (dry tissue): 1.51 % dose/g
Rat brain DAT [4]; No Block
  Regional uptake, Cerebellum: 0.13 % dose/g
  Regional uptake, Cortex (CX) (dry tissue): 0.53 % dose/g
  Regional uptake, Olfactory Tubercle (dry tissue): 5.26 % dose/g
  Regional uptake, Prefrontal Cx (dry tissue): 0.74 % dose/g
  Regional uptake, Striatum (dry tissue): 6.96 % dose/g
Rat brain DAT [4]; Paroxetine 5 mg/kg i.v.
  Regional uptake, Cerebellum: 0.10 % dose/g
  Regional uptake, Cortex (CX) (dry tissue): 0.46 % dose/g
  Regional uptake, Olfactory Tubercle (dry tissue): 5.06 % dose/g
  Regional uptake, Prefrontal Cx (dry tissue): 0.67 % dose/g
  Regional uptake, Striatum (dry tissue): 4.47 % dose/g
Rat brain DAT [4]; Reboxetine 5 mg/kg i.v.
  Regional uptake, Cerebellum: 0.12 % dose/g
  Regional uptake, Cortex (CX) (dry tissue): 0.41 % dose/g
  Regional uptake, Olfactory Tubercle (dry tissue): 5.74 % dose/g
  Regional uptake, Prefrontal Cx (dry tissue): 0.77 % dose/g
  Regional uptake, Striatum (dry tissue): 6.64 % dose/g
[5]; 180-210 min
  striatum (S) uptake by PET: 2.7 μCi/mL
[5]; PET
  striatum uptake: high striatum uptake; also recorded: region of highest uptake in the brain
Striatal DAT [6]
  displacement from striatum by β-CIT: striatal washout; also recorded: significant reduction of activity in the striatum
Striatal DAT [6]; listed as FBCINT
  displacement from striatum by β-CIT: exhibited reversibility
Striatal DAT [6]; β-CIT 0.9 μmol/kg i.v. at 195 minutes p.i.
  washout half-time on displacement by β-CIT: 21 min
Striatal DAT [3]; awake rhesus monkey, decay corrected
  striatal washout / time course of uptake: very little if any washout; also recorded: appears constant at 115 minutes post injection
Striatal DAT [3]; awake rhesus monkeys
  initial uptake in striatum and cerebellum: high initial uptake in the striatum and very little uptake in the cerebellum
[7]
  stability to metabolism and in vivo loss of fluorine-18: stable to metabolism and in vivo loss of the fluorine-18 radioisotope

## COC(=O)[C@H]1[C@@H](c2ccc(Br)cc2)C[C@@H]2CC[C@H]1N2C/C=C/CF [6b, N-((E)-4-=fluorobut-2-en-1-yl)-2β-carbomethoxy-3β-4-(4-bromophenyl)nortropane]
[8]
  Ki: 91 nM
Human SERT
  Ki: 0.85 nM

## COC(=O)[C@H]1[C@@H](c2ccc(Cl)cc2)C[C@@H]2CC[C@H]1N2C/C=C/I [MMG/142, IPT, reference compound]
Human DAT
  Ki: 1.16 nM
[8]
  Ki: 48.7 nM
Human SERT
  Ki: 4.9 nM
